Results reported in ChEMBL document CHEMBL1201862, “PubChem BioAssay data set” (2004).
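A five-concentration, 48-hour dose response in 96-well plates underlies each endpoint, interpolated linearly between surrounding concentrations. GI50 = concentration required for 50% inhibition of growth.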 Activity calls are given as the source filed them. Rule as the data show it: active = GI50 up to about 1.1 µM and inactive = higher.

What was measured:
Test in all cases: NCI tumour cell line growth inhibition, 48 h
HCC 2998 = tested on: HCC 2998
U-251 = tested on: U-251
OVCAR-8 = tested on: OVCAR-8
CCRF-CEM = tested on: CCRF-CEM
NCI-H226 = tested on: NCI-H226
RPMI-8226 = tested on: RPMI-8226
SW-620 = tested on: SW-620
HCT-116 = tested on: HCT-116
K562 = tested on: K562
OVCAR-4 = tested on: OVCAR-4
HL-60 = tested on: HL-60
SNB-19 = tested on: SNB-19
M14 = tested on: M14
NCI-H460 = tested on: NCI-H460
LOX IMVI = tested on: LOX IMVI
EKVX = tested on: EKVX
SN12C = tested on: SN12C

Measured: GI50

O=C(c1ccccc1)c1c(CC(O)c2ccncc2)n(C(=O)c2ccccc2)c2ccccc12 (centres undefined)
inactive: HCC 2998 17.1 µM | U-251 17.7 µM | OVCAR-8 30 µM | CCRF-CEM 25.1 µM | NCI-H226 14.7 µM | RPMI-8226 19.6 µM | SW-620 18.7 µM | HCT-116 15.6 µM | K562 > 10 µM | OVCAR-4 15.8 µM | HL-60 18.2 µM | SNB-19 21.8 µM | M14 16.9 µM | NCI-H460 18.7 µM

C=CCN1C(=O)NC(=O)/C(=C/c2c3ccccc3cc3ccccc23)C1=O
inactive: HCC 2998 14.8 µM | U-251 16.7 µM | OVCAR-8 22.4 µM | CCRF-CEM 26.3 µM | NCI-H226 26.3 µM | LOX IMVI 27.6 µM | SW-620 35.7 µM | HCT-116 17.1 µM | K562 20.8 µM | OVCAR-4 22.2 µM | EKVX 25.5 µM | SNB-19 21.8 µM | M14 16.2 µM | NCI-H460 19.1 µM

CN(C(=O)c1ccco1)C(=S)N1CCN(c2ccccn2)CC1
inactive: U-251 > 100 µM | OVCAR-8 > 100 µM | CCRF-CEM > 100 µM | SN12C > 100 µM | NCI-H226 > 100 µM | RPMI-8226 > 100 µM | LOX IMVI > 100 µM | SW-620 > 100 µM | HCT-116 > 100 µM | K562 > 100 µM | OVCAR-4 > 100 µM | HL-60 > 100 µM | SNB-19 > 100 µM | M14 > 100 µM | NCI-H460 > 100 µM

CCCCN(CCCC)C(=O)C(=O)C(C(=O)c1ccc(OC)cc1)c1ccc(OC)cc1 (centres undefined)
inactive: HCC 2998 > 100 µM | U-251 > 100 µM | OVCAR-8 > 100 µM | CCRF-CEM > 100 µM | SN12C > 100 µM | NCI-H226 > 100 µM | LOX IMVI > 100 µM | SW-620 > 100 µM | HCT-116 > 100 µM | K562 > 100 µM | OVCAR-4 > 100 µM | EKVX > 100 µM | HL-60 > 100 µM | SNB-19 > 100 µM | M14 92.3 µM | NCI-H460 > 100 µM

N=C(NC(=N)Nc1ccc(S(=O)(=O)Nc2cnc3ccccc3n2)cc1)Nc1ccc(Br)cc1
inactive: HCC 2998 > 100 µM | U-251 > 100 µM | OVCAR-8 > 100 µM | CCRF-CEM > 100 µM | SN12C > 100 µM | NCI-H226 > 100 µM | RPMI-8226 > 100 µM | LOX IMVI > 100 µM | SW-620 > 100 µM | K562 > 100 µM | OVCAR-4 > 100 µM | EKVX > 100 µM | SNB-19 > 100 µM | M14 > 100 µM | NCI-H460 > 100 µM

CC(C)(C)C(=O)OCC1CCC(n2cnc3c(=O)[nH]c(N)nc32)O1 (centres undefined)
inactive: HCC 2998 > 100 µM | U-251 > 100 µM | OVCAR-8 > 100 µM | CCRF-CEM > 100 µM | SN12C > 100 µM | NCI-H226 > 100 µM | RPMI-8226 > 100 µM | LOX IMVI > 100 µM | SW-620 > 100 µM | HCT-116 > 100 µM | K562 > 100 µM | OVCAR-4 > 100 µM | EKVX > 100 µM | SNB-19 > 100 µM | M14 > 100 µM | NCI-H460 > 100 µM

CC1=C(Cl)C=CP(=O)(Oc2ccccc2)C1 (centres undefined)
inactive: HCC 2998 > 100 µM | U-251 > 100 µM | OVCAR-8 23.3 µM | CCRF-CEM > 10 µM | LOX IMVI 33 µM | SW-620 39.4 µM | HCT-116 30.8 µM | K562 > 10 µM | OVCAR-4 > 100 µM | EKVX > 100 µM | HL-60 > 10 µM | SNB-19 > 100 µM | M14 19.1 µM | NCI-H460 32.6 µM
